Laboratory results: patent US20020142347A1, “Biosensor” (BIOSENSOR ApS, priority 2000, published 2002)
Positions count from the first letter of the chain named.

How the values were obtained:
FACI-24 = molecular target: T1, FACI-24 (Bos taurus, UniProt P07107, M25C); test: Fluorescence emission change of FACI-24 on titration with CoA and acyl-CoA esters; format: binding, bovine
T1 construct: made in house; host or cells: E. coli BL21(DE3)pLysS, pET3a vector
T1 sequence (P07107 2-87 M25C): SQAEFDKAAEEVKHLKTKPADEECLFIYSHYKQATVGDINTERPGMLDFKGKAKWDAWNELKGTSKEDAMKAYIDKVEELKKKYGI
Experimental: (§1) Quantitative determination of binding affinities (KD) were performed by isothermal titration micro calorimetry as previously described (Faergeman et. al., 1996; Biochemistry 35, 14118-14126). Qualitative evaluation of relative binding affinities were determined by isoelectrical focusing using the Pharmacia Fast Gel system according to the prescriptions given by the manufacture. Fluorescence emission changes induced by acyl-CoA binding to badan modified protein were determined as follows: 5 μl portions of acyl-CoAs were added from stock solutions disolved in binding buffer, (10 mM Hepes, 150 mM NaCL, 1 mM NaHPO4, pH 7.4) containing 3.4 μM Badan derivatized protein to a 1 ml 3.4 μM solution of the Badan derivatized ACBP in the same buffer. The fluorescence emission was measured on a SPEX FLOUROLOG (Industries Inc, Edison N.J., USA) with excitation at 400 nm and emission scan from 400 nm to 550 nm. The concentration of acyl-CoA in the aqueous phase was determined from the fluorescence emission sensitivities at 495 and 470 nm repectively essentially by the method described by (Grynkiewickz et. al.,1985, J. Biol. Chem. 260, 3440-3450) according to which:
(§2) Fluorescence titration emission spectra from 415 nm to 550 nm (excitation at 400 nm) were performed for CoA, C4:0-, C8:0-, C12:0-, C16:0-, and C20:0-CoA with all four mutated and badan modified proteins.
The emission maximum of FACI-24 without ligand added was 510 nm and titration with CoA, C4:0-, C8:0-, C12:0-, […], C16:0- and C20:0-CoA caused 0, 16, 34, 42, 46 and 46 nm downshift in emission maximum, respectively (results not shown). C16:0-CoA induced a 5,5 fold increase in emission at 464 nm (FIG. 10).
Titration of FACI with acyl-CoAs was done using a SPEX FLOUROLOG (Industries Inc, Edison N.J., USA) with excitation at 387 nm and emission at 460 nm, with both excitation and emission slits set to 4.5 nm. FACI (0.5-4.5 uM, as indicated) was dissolved in 1.5 ml binding buffer (10 mM HEPES 150 mM NaCl, 5 mM KCl, 1 mM Na2HPO4, pH 7.4) and titrated with a 10 μM acyl-CoA dissolved in binding buffer, with or without FACI added, as indicated. Fluorescence emission values (counts per second) measured without FACI added to the ligand stock solution were corrected for titrand dilution.

FACI53 [1] = molecular target: T2, FACI53 (Bos taurus, UniProt P07107, A54C); test: Fluorescence emission change of FACI-53 on titration with CoA and acyl-CoA esters; format: binding, bovine
T2 construct: badan (6-bromoacetyl-2-dimethylaminonaphthalene) fluorophore on the introduced Cys-53; made in house; host or cells: E. coli BL21(DE3)pLysS, pET3a vector
T2 sequence (P07107 2-87 A54C): T1 sequence (P07107 2-87 M25C) with C24M, A53C
Experimental: as §1, §2
Titration of FACI-53 dissolved in binding buffer with the above mentioned acyl-CoA esters produced a smooth downward shift in fluorescence emission maximum from 525 nm when no ligand was present to 508, 503, 490, 492, 496 and 514 with increasing concentrations of CoA, C4:0-, C8:0-, C12:0-, C16:0- and C20:0-CoA respectively.

FACI53 [2] = molecular target: T2, FACI53; test: Isoelectrical focusing of acyl-CoA binding to FACI53; parameters: species or system bovine; details: ligand in four-fold molar excess over protein
Experimental: All the gels were prepared with ligands (1-7) in four-fold molar excess over protein. […] The protein-ligand complex shifted to a pl around 3.8. Legend: 1: Water, 2: CoA-SH, 3: C4-CoA, 4: C8-CoA, 5: C12-CoA, 6: C16-CoA, 7: C20-CoA, 8: Broad pl Calibration Kit (pH 3-10).
as §1, with “The concentration of acyl-CoA in the aqueous phase was determined from the fluorescence emission sensitivities at 495 and 470 nm repectively essentially by the method described by (Grynkiewickz et. al.,1985, J. Biol. Chem. 260, 3440-3450) according to which:” left out

native bovine ACBP = molecular target: T3, native bovine ACBP (Bos taurus, UniProt P07107); details: isothermal titration microcalorimetry, >0.1 M salt; literature; read-out: KD for binding to native bovine ACBP; cited from earlier work
T3 sequence (P07107 1-87): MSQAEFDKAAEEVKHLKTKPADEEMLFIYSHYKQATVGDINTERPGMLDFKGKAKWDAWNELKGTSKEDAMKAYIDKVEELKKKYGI

Fold increase in emission of FACI-24 at 464 nm (FACI-24; emission at 464 nm): 5,5 fold
Downshift in emission maximum of FACI-24 (FACI-24; emission maximum without ligand 510 nm, excitation 400 nm): 46 nm
Magnitude of emission of FACI-53, fold increase (FACI53 [1]): 1.3 fold
Fluorescence emission maximum of FACI-53 with ligand (FACI53 [1]; 525 nm when no ligand present, excitation 400 nm): 496 nm
Relative emission of FACI-53 at 495 nm, fold increase (FACI53 [1]; emission at 495 nm): 2.2 fold
Binding to FACI53 by isoelectrical focusing (FACI53 [2]): shown to bind
Structure (SMILES): CCCCCCCCCCCCCCCC(=O)SCCNC(=O)CCNC(=O)[C@H](O)C(C)(C)COP(=O)(O)OP(=O)(O)OC[C@H]1O[C@@H](n2cnc3c(N)ncnc32)[C@H](O)[C@@H]1OP(=O)(O)O [C16:0-CoA, palmitoyl-CoA]
Kd (native bovine ACBP): 2 nM
